Laboratory results reported in patent US20080262445A1, “Transdermal Delivery of Hydrophobic Bioactive Agents” (DERMATRENDS, INC., priority 2004, published 2008).
Where two headings read alike, the source gives them in different places.

Experiments:
[1] = format: in vitro ADME; settings: human, pH 7.4
Protocol: An in vitro skin permeation study was conducted using one ondansetron transdermal patch. The formulations used to prepare these systems are listed in Table 1, which includes weight and percent weight of each component of the dried formulations. “PVPP’ refers to a commercially available polyvinyl polypyrrolidone powder, which was added in an amount sufficient to balance the liquid nature of other solubizing agents in order to maintain the physical integrity of the patch. Other suitable and generally inert powders that can be used will become apparent to those skilled in the art, given the present description. “Duratak” is a tradename and refers to a commercially available polyisobutylene adhesive liquid available from National Starch and Chemical.
Each formulation was coated on a release liner and dried in an oven at 65° C. for two hours to remove water and other solvents. […]
The in vitro permeation of ondansetron through human cadaver skin from these discs was performed using Franz diffusion cells with a diffusion area of 1 cm^2 and a receiver solution capacity of 8 ml. […] The receiver solution collected was analyzed by HPLC to determine the concentration of ondansetron. The cumulative amount of ondansetron that permeated across the human cadaver skin was calculated using the measured ondansetron concentrations in the receiver solutions, which were plotted versus time and shown in FIG. 1. […]

Final pH of the patch = format: physicochemical; settings: pH of the transdermal patch

Cc1nccn1CC1CCc2c(c3ccccc3n2C)C1=O (stereo not drawn) [ondansetron, 1,2,3,9-tetrahydro-9-methyl-3-[(2-methyl-1H-imidazol-1-yl)methyl]-4H-carbazol-4-one]
cumulative amount of ondansetron that permeated through the skin ([1]; 24 h): 0.26 mg/cm^2 | cumulative amount of ondansetron that permeated through the skin ([1]; 51 h): 0.51 mg/cm^2 | final patch pH (Final pH of the patch): 4.7
